This note sets out measurements from US20220324835A1 (Nurix Therapeutics, Inc., priority 2018, published 2022).

In one assay the test system is primary human B cells. As to the kind of experiment: B cell activation assay (CD69 on anti-IgM stimulated B cells). In kind it is cell-based. As to conditions: AUC of dose response curve (10 μM to 1 nM) of CD69 MFI normalized to DMSO control. An outline of the steps:
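Negatively selected PBMC-derived B cells (>95% CD20+) treated with Cbl-b inhibitors from 10 μM to 1 nM (DMSO <0.5%) and stimulated with anti-IgM for 20 h at 37° C. CD69 MFI on CD20+ IgD+ cells by flow cytometry; dose-response AUC normalized to DMSO plus 2.5 μg/mL anti-IgM-F(ab′)2, binned A-D.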

The test system of the next assay is primary human NK cells. As to the kind of experiment: NK cell activation assessed by cytokine secretion (coculture with K562 NucRed target cells). In kind it is cell-based. As to conditions: for fold induction at 0.625 µM: 0.625 μM compound; for fold induction at 2.5 µM: 2.5 μM compound. Here is the method: Peripheral blood mononuclear cells (PBMC) were obtained either: 1) by using Ficoll-Paque™ (GE Healthcare) for separation of peripheral blood hematopoietic cells from buffy coats of healthy human donors; or 2) directly from LeukoPak donations. […] The cells were cultured overnight with IL-2 (60 ng/mL) at 37° C. 5% CO2. Cbl-b inhibitors were added 1 hour prior to stimulation and incubated at 37° C. 5% CO2 at a specific concentration (e.g., 10 μM, 1 μM, or 0.1 μM) with a final DMSO concentration of <0.1%. NK cells were co-cultured with target cells that were engineered to have a red nucleus (K562 NucRed) measurable by flow cytometry. […] The cells were mixed at the indicated ratios (e.g., 5:1, 1:1, or 1:5) of NK (effector cells) to K562 NucRed (target cells) for 6 hours. Cell free supernatants were collected and analyzed for cytokine secretion (e.g. TNFα, IFNγ, or MIP1β) by ELISA or Luminex multiplex kits following the manufacturer's protocol. IFNγ secretion was assessed using an R&D Systems ELISA kit (Catalog #DY285), TNFα secretion was assessed using an R&D Systems ELISA kit (Catalog #DY210), and MIP1β secretion was assessed using an R&D Systems ELISA kit (Catalog #DY271).
Readouts were reported as fold change over baseline. Baseline for this study was the measurement obtained from primary human NK effector cells cocultured with K562 NucRed target cells in the absence of a Cbl-b inhibitor. For NK cells cocultured with K562 NucRed cells, changes greater than 2.0-fold over baseline for cytokine secretion were considered a positive response (Table 10a and 10b).

[1] abbreviates: K562, NK cells cocultured with K562 NucRed, 1:1 E/T, read-out: IFNγ secretion, fold change over baseline.
The mark [2] stands for this setting: K562, NK cells cocultured with K562 NucRed, 1:1 E/T, read-out: TNFα secretion, fold change over baseline.
The mark [3] stands for this setting: K562, NK cells cocultured with K562 NucRed, 1:1 E/T, 10 μM compound, read-out: IFNγ secretion, fold change over baseline.
Where [4] appears, read: K562, NK cells cocultured with K562 NucRed, 1:1 E/T, 10 μM compound, read-out: TNFα secretion, fold change over baseline.

SMILES strings stand for the structures. Like-named read-outs stand apart in the source and are kept apart here.

In the case of `C[C@H](Cc1nncn1C)c1cccc(NC(=O)c2n[nH]c3c2CCC3)c1` [Compound 313, (R)-N-(3-(1-(4-Methyl-4H-1,2,4-triazol-3-yl)propan-2-yl)phenyl)-1,4,5,6-tetrahydrocyclopenta[c]pyrazole-3-carboxamide], the “CD69 MFI AUC” value with primary human B cells is reported as “B (B indicates 0.5-1.00)”. Further, the values for the fold induction at 0.625 µM with primary human NK cells (setting [1]) and with primary human NK cells (setting [2]) were under 1 and 1.01 to 2, respectively. Also, the fold induction at 2.5 µM in the assay on primary human NK cells (setting [1]) and with primary human NK cells (setting [2]) was 1.01 to 2 in each case. For the same compound, the fold induction at 10 µM in the assay on primary human NK cells (setting [3]) is 2.01 to 5; with primary human NK cells (setting [4]), 1.01 to 2.
Take `Cc1cc(C(=O)Nc2cccc([C@@H](C)Cc3nncn3C)c2)nc(C2CC2)n1` [Compound 325, (S)-2-Cyclopropyl-6-methyl-N-(3-(1-(4-methyl-4H-1,2,4-triazol-3-yl)propan-2-yl)phenyl)pyrimidine-4-carboxamide]: in the assay on primary human B cells, the “CD69 MFI AUC” value is listed as “C (C indicates 1.01-1.50)”. The fold induction at 0.625 µM was 1.01 to 2 in the assay with primary human NK cells (setting [1]) and under 1 in the assay with primary human NK cells (setting [2]). Further, the fold induction at 2.5 µM is 1.01 to 2 in the assay with primary human NK cells (setting [1]) and under 1 with primary human NK cells (setting [2]). In addition, the fold induction at 10 µM with primary human NK cells (setting [3]) lay within 2.01 to 5; with primary human NK cells (setting [4]) it was 1.01 to 2.
Turning to `Cn1cnnc1CC1(c2cccc(NC(=O)c3nc4c(C(F)(F)F)cccc4[nH]3)c2)COC1` [Compound 335, N-(3-{3-[(4-methyl-1,2,4-triazol-3-yl)methyl]oxetan-3-yl}phenyl)-4-(trifluoromethyl)-1H-1,3-benzodiazole-2-carboxamide], the “CD69 MFI AUC” value with primary human B cells is reported as “B (B indicates 0.5-1.00)”. In addition, the fold induction at 0.625 µM in the assay on primary human NK cells (setting [1]) and in the assay on primary human NK cells (setting [2]) was 1.01 to 2 in each case. Further, the values for the fold induction at 2.5 µM in the assay with primary human NK cells (setting [1]) and in the assay with primary human NK cells (setting [2]) were 2.01 to 5 and 1.01 to 2, respectively. Further, the fold induction at 10 µM with primary human NK cells (setting [3]) and in the assay with primary human NK cells (setting [4]) was 2.01 to 5 throughout.
For the compound `Cc1cc(C(=O)Nc2cccc(C3(Cc4nncn4C)COC3)c2)nc(C2CC2)n1` [Compound 336, 2-cyclopropyl-6-methyl-N-(3-(3-((4-methyl-4H-1,2,4-triazol-3-yl)methyl)oxetan-3-yl)phenyl)pyrimidine-4-carboxamide], in the assay with primary human B cells, the “CD69 MFI AUC” value is reported as “D (D indicates ≥1.51)”. Further, the fold induction at 0.625 µM with primary human NK cells (setting [1]) was in the range of 2.01 to 5; with primary human NK cells (setting [2]) it was 1.01 to 2. For the same compound, the fold induction at 2.5 µM with primary human NK cells (setting [1]) is over 5; with primary human NK cells (setting [2]), 2.01 to 5. Also, the fold induction at 10 µM in the assay on primary human NK cells (setting [3]) is over 5; in the assay with primary human NK cells (setting [4]) it was 2.01 to 5.
Consider `Cc1n[nH]c(C)c1-c1cc2c(c(C(F)(F)F)c1)CN(c1cccc(C3(Cc4nncn4C)COC3)c1)C2=O` [Compound 385, 6-(3,5-dimethyl-1H-pyrazol-4-yl)-2-(3-{3-[(4-methyl-4H-1,2,4-triazol-3-yl)methyl]oxetan-3-yl}phenyl)-4-(trifluoromethyl)-2,3-dihydro-1H-isoindol-1-one], for which the “CD69 MFI AUC” value in the assay on primary human B cells was “C (C indicates 1.01-1.50)”. Moreover, the fold induction at 0.625 µM with primary human NK cells (setting [1]) was 1.01 to 2; with primary human NK cells (setting [2]) it was under 1. For the same compound, the fold induction at 2.5 µM in the assay with primary human NK cells (setting [1]) is 2.01 to 5; with primary human NK cells (setting [2]), 1.01 to 2. Moreover, the results for the fold induction at 10 µM in the assay on primary human NK cells (setting [3]) and in the assay with primary human NK cells (setting [4]) were 2.01 to 5 and 1.01 to 2, respectively.
`C[C@H](Cc1nncn1C)c1cccc(N2Cc3c(cc(CN4CC(O)C4)cc3C(F)(F)F)C2=O)c1` [Compound 393, (R)-6-((3-hydroxyazetidin-1-yl)methyl)-2-(3-(1-(4-methyl-4H-1,2,4-triazol-3-yl)propan-2-yl)phenyl)-4-(trifluoromethyl)isoindolin-1-one]: the “CD69 MFI AUC” value with primary human B cells is listed as “B (B indicates 0.5-1.00)”. Also, the fold induction at 0.625 µM with primary human NK cells (setting [1]) and in the assay with primary human NK cells (setting [2]) was 1.01 to 2 each time. Further, the fold induction at 2.5 µM with primary human NK cells (setting [1]) and in the assay with primary human NK cells (setting [2]) was 2.01 to 5 each time. For the same compound, the fold induction at 10 µM in the assay with primary human NK cells (setting [3]) and in the assay with primary human NK cells (setting [4]) was 2.01 to 5 throughout.
Consider `C[C@H](Cc1nncn1C)c1cccc(N2Cc3c(cc(CN4CC(C)(O)C4)cc3C(F)(F)F)C2=O)c1` [Compound 397], for which the “CD69 MFI AUC” value in the assay on primary human B cells is “B (B indicates 0.5-1.00)”. Besides, the fold induction at 0.625 µM was in the range of 2.01 to 5 in the assay on primary human NK cells (setting [1]) and 1.01 to 2 with primary human NK cells (setting [2]). Also, the fold induction at 2.5 µM with primary human NK cells (setting [1]) and in the assay on primary human NK cells (setting [2]) was 2.01 to 5 each time. Moreover, the fold induction at 10 µM is over 5 with primary human NK cells (setting [3]) and 2.01 to 5 with primary human NK cells (setting [4]).
As for `C[C@H](Cc1nncn1C)c1cccc(N2Cc3c(cc(CN4CC[C@](C)(O)C4)cc3C(F)(F)F)C2=O)c1` [Compound 398, 6-(((S)-3-hydroxy-3-methylpyrrolidin-1-yl)methyl)-2-(3-((R)-1-(4-methyl-4H-1,2,4-triazol-3-yl)propan-2-yl)phenyl)-4-(trifluoromethyl)isoindolin-1-one], the “CD69 MFI AUC” value in the assay with primary human B cells is “B (B indicates 0.5-1.00)”. The fold induction at 0.625 µM was in the range of 2.01 to 5 in the assay with primary human NK cells (setting [1]) and 1.01 to 2 in the assay on primary human NK cells (setting [2]). Besides, the fold induction at 2.5 µM in the assay with primary human NK cells (setting [1]) and in the assay on primary human NK cells (setting [2]) was 2.01 to 5 throughout. In addition, the fold induction at 10 µM in the assay on primary human NK cells (setting [3]) is over 5; in the assay on primary human NK cells (setting [4]) it was 2.01 to 5.
With `C[C@H](Cc1nncn1C)c1cccc(N2Cc3c(cc(CN4CC[C@H](F)C4)cc3C(F)(F)F)C2=O)c1` [Compound 399, 6-(((S)-3-fluoropyrrolidin-1-yl)methyl)-2-(3-((R)-1-(4-methyl-4H-1,2,4-triazol-3-yl)propan-2-yl)phenyl)-4-(trifluoromethyl)isoindolin-1-one], the “CD69 MFI AUC” value in the assay on primary human B cells is “C (C indicates 1.01-1.50)”. Also, the fold induction at 1 µM in the assay on primary human NK cells (K562, 1:1 E/T, read-out: IFNγ secretion) lay within 2.01 to 5; in the assay with primary human NK cells (K562, 1:1 E/T, read-out: MIP1β secretion) it was 1.01 to 2; in the assay with primary human NK cells (K562, 1:1 E/T, read-out: TNFα secretion), 2.01 to 5; in the assay with primary human NK cells (K562, 5:1 E/T, read-out: IFNγ secretion) it was 2.01 to 5; in the assay on primary human NK cells (K562, 5:1 E/T, read-out: MIP1β secretion) it was 1.01 to 2; in the assay with primary human NK cells (K562, 5:1 E/T, read-out: TNFα secretion), 2.01 to 5. Also, the fold induction at 10 µM with primary human NK cells (K562, 1:1 E/T, 10 μM, read-out: IFNγ secretion) is over 5; in the assay with primary human NK cells (K562, 1:1 E/T, 10 μM, read-out: MIP1β secretion), 1.01 to 2; with primary human NK cells (K562, 1:1 E/T, 10 μM, read-out: TNFα secretion), 2.01 to 5; in the assay on primary human NK cells (K562, 5:1 E/T, 10 μM, read-out: IFNγ secretion) it was over 5; in the assay with primary human NK cells (K562, 5:1 E/T, 10 μM, read-out: MIP1β secretion), 1.01 to 2; in the assay on primary human NK cells (K562, 5:1 E/T, 10 μM, read-out: TNFα secretion) it was over 5. The fold induction at 10 µM in the assay with primary human NK cells (setting [3]) and in the assay with primary human NK cells (setting [4]) was over 5 each time. Moreover, the fold induction at 0.625 µM in the assay with primary human NK cells (setting [1]) and with primary human NK cells (setting [2]) was 2.01 to 5 throughout. For the same compound, the fold induction at 2.5 µM in the assay on primary human NK cells (setting [1]) and in the assay with primary human NK cells (setting [2]) was over 5 throughout.
For `C[C@@H](c1cc2c(c(C(F)(F)F)c1)CN(c1cccc(C3(Cc4nncn4C)COC3)c1)C2=O)N1CC[C@H](F)C1` [Compound 412, 6-((S)-1-((S)-3-fluoropyrrolidin-1-yl)ethyl)-2-(3-(3-((4-methyl-4H-1,2,4-triazol-3-yl)methyl)oxetan-3-yl)phenyl)-4-(trifluoromethyl)isoindolin-1-one], in the assay with primary human B cells, the “CD69 MFI AUC” value is recorded as “D (D indicates ≥1.51)”. In addition, the fold induction at 0.625 µM in the assay on primary human NK cells (setting [1]) and in the assay on primary human NK cells (setting [2]) was 2.01 to 5 each time. Besides, the fold induction at 2.5 µM in the assay on primary human NK cells (setting [1]) and in the assay on primary human NK cells (setting [2]) was 2.01 to 5 throughout. Further, the fold induction at 10 µM is over 5 in the assay with primary human NK cells (setting [3]) and 2.01 to 5 in the assay on primary human NK cells (setting [4]).
